Results on 3 molecules are retold here after ChEMBL document CHEMBL3593172, “4-(N-Phenyl-N'-substituted benzenesulfonyl)-6-(4-hydroxyphenyl)quinolines as inhibitors of mammalian target of rapamycin” (Bioorg Med Chem, 2015).

Calls of active or inactive are those of the source. The rule behind the calls is not given here.

In assay [1] the target is Serine/threonine-protein kinase mTOR (Homo sapiens) (UniProt P42345). As to the kind of experiment: Inhibition of mTOR (unknown origin) assessed as p70S6K phosphorylation after 30 mins by ELISA. On the technique in general: In an ELISA, binding on a coated surface is turned into a signal by an enzyme label.
Assay [2] can be described thus: Disruption of mitochondrial membrane potential in human MIAPaCa2 cells at 30 uM after 24 hrs by Rh123 dye-based flow cytometric analysis (reference value: 6%). The format is functional, MIA PaCa-2.
Assay [3] in a line: Cell cycle arrest in human MIAPaCa2 cells assessed as accumulation at G2 phase at 10 uM after 24 hrs by propidium iodide staining-based flow cytometric analysis (reference value: 5%). The assay is classed as functional. Conditions: MIA PaCa-2. On the technique in general: Flow cytometry measures light scatter and fluorescence of single cells or particles in a stream.
Assay [4] relates to PC-3. As to the kind of experiment: cells. Conditions: Homo sapiens, PC-3, 48 h.
Description: Cytotoxicity against human PC3 cells assessed as inhibition of cell proliferation after 48 hrs by MTT assay
Assay [5] concerns MIA PaCa-2. Nature of the assay: Effect on P110alpha expression in human MIAPaCa2 cells at 5 to 10 uM measured after 2 to 4 hrs by Western blot analysis. The assay is classed as functional, cell-based. (A western blot detects proteins with antibodies after separation by electrophoresis.)
Assay [6] is described as follows: Cytotoxicity against human MIAPaCa2 cells assessed as growth inhibition at 100 uM after 24 to 48 hrs by MTT assay relative to control. Conditions: MIA PaCa-2, read-out: GI. The assay is classed as functional.
Assay [7] has as its system HCT-116. As to the kind of experiment: Cytotoxicity against human HCT116 cells assessed as growth inhibition at 30 uM after 24 to 48 hrs by MTT assay relative to control. The assay is classed as functional. Conditions: read-out: GI.
Assay [8] can be described thus: Cell cycle arrest in human MIAPaCa2 cells assessed as accumulation at S phase at 30 uM after 24 hrs by propidium iodide staining-based flow cytometric analysis (reference value: […]%). Conditions: MIA PaCa-2. The format is functional.
Assay [9] is described as follows: Disruption of mitochondrial membrane potential in human MIAPaCa2 cells at 20 uM after 24 hrs by Rh123 dye-based flow cytometric analysis (reference value: 6%). The format is functional, MIA PaCa-2.
Assay [10] is described as follows: Cell cycle arrest in human MIAPaCa2 cells assessed as accumulation at G1 phase at 30 uM after 24 hrs by propidium iodide staining-based flow cytometric analysis (reference value: 51%). The format is functional. Conditions: MIA PaCa-2.
The test system of assay [11] is HL-60. As to the kind of experiment: Cytotoxicity against human HL60 cells assessed as growth inhibition at 100 uM after 24 to 48 hrs by MTT assay relative to control. The format is functional. Conditions: read-out: GI.
A short description of assay [12]: Cell cycle arrest in human MIAPaCa2 cells assessed as accumulation at G2 phase at 20 uM after 24 hrs by propidium iodide staining-based flow cytometric analysis (reference value: 5%). The format is functional. Conditions: MIA PaCa-2.
Assay [13] concerns HepG2. As to the kind of experiment: Cytotoxicity against human HepG2 cells assessed as growth inhibition at 30 uM after 24 to 48 hrs by MTT assay relative to control. The format is functional. Conditions: read-out: GI.
Assay [14] can be described thus: Cell cycle arrest in human MIAPaCa2 cells assessed as accumulation at G1 phase at 10 uM after 24 hrs by propidium iodide staining-based flow cytometric analysis (reference value: 51%). The assay is classed as functional. Conditions: MIA PaCa-2.
The subject of assay [15] is PC-3. Nature of the assay: Cytotoxicity against human PC3 cells assessed as growth inhibition at 30 uM after 24 to 48 hrs by MTT assay relative to control. The assay is classed as functional. Conditions: read-out: GI.
The test system of assay [16] is HCT-116. Nature of the assay: Cytotoxicity against human HCT116 cells assessed as growth inhibition at 100 uM after 24 to 48 hrs by MTT assay relative to control. The assay is classed as functional. Conditions: read-out: GI.
Assay [17] deals with HepG2. As to the kind of experiment: cells. Conditions: Homo sapiens, HepG2, 48 h.
Description: Cytotoxicity against human HepG2 cells assessed as inhibition of cell proliferation after 48 hrs by MTT assay
Another assay is described as follows: cells. Conditions: Homo sapiens, MIA PaCa-2, 48 h.
In assay [18] the test system is MIA PaCa-2. As to the kind of experiment: Effect on mTORC2 complex in human MIAPaCa2 cells assessed as p-Akt phosphorylation at S473 at 5 to 10 uM measured at 2 hrs by Western blot analysis. The assay is classed as cell-based.
The nature of assay [19]: Cell cycle arrest in human MIAPaCa2 cells assessed as apoptotic cells at 30 uM after 24 hrs by propidium iodide staining-based flow cytometric analysis (reference value: 0.1%). The assay is classed as functional. Conditions: MIA PaCa-2.
The subject of assay [20] is HCT-116. Nature of the assay: cells. Conditions: Homo sapiens, HCT-116, 48 h.
Description: Cytotoxicity against human HCT116 cells assessed as inhibition of cell proliferation after 48 hrs by MTT assay
Assay [21] in a line: Cytotoxicity against human MIAPaCa2 cells assessed as growth inhibition at 30 uM after 24 to 48 hrs by MTT assay relative to control. Conditions: MIA PaCa-2, read-out: GI. The assay is classed as functional.
The subject of assay [22] is PC-3. Nature of the assay: Cytotoxicity against human PC3 cells assessed as growth inhibition at 100 uM after 24 to 48 hrs by MTT assay relative to control. The assay is classed as functional. Conditions: read-out: GI.
Assay [23] has as its system HCT-116. Nature of the assay: Cytotoxicity against human HCT116 cells assessed as growth inhibition at 10 uM after 24 to 48 hrs by MTT assay relative to control. The format is functional. Conditions: read-out: GI.
A short description of assay [24]: Cell cycle arrest in human MIAPaCa2 cells after 24 hrs by propidium iodide staining-based flow cytometric analysis. The assay is classed as functional. Conditions: MIA PaCa-2.
The nature of assay [25]: Cell cycle arrest in human MIAPaCa2 cells assessed as accumulation at G1 phase at 20 uM after 24 hrs by propidium iodide staining-based flow cytometric analysis (reference value: 51%). The format is functional. Conditions: MIA PaCa-2.
Assay [26] relates to HepG2. Nature of the assay: Cytotoxicity against human HepG2 cells assessed as growth inhibition at 100 uM after 24 to 48 hrs by MTT assay relative to control. The assay is classed as functional. Conditions: read-out: GI.
Assay [27] concerns HL-60. Nature of the assay: Cytotoxicity against human HL60 cells assessed as growth inhibition at 30 uM after 24 to 48 hrs by MTT assay relative to control. The format is functional. Conditions: read-out: GI.
The subject of assay [28] is HepG2. Nature of the assay: Cytotoxicity against human HepG2 cells assessed as growth inhibition at 10 uM after 24 to 48 hrs by MTT assay relative to control. The format is functional. Conditions: read-out: GI.
Assay [29] in a line: Cell cycle arrest in human MIAPaCa2 cells assessed as accumulation at S phase at 10 uM after 24 hrs by propidium iodide staining-based flow cytometric analysis (reference value: […]%). The assay is classed as functional. Conditions: MIA PaCa-2.
A short description of assay [30]: Disruption of mitochondrial membrane potential in human MIAPaCa2 cells at 10 uM after 24 hrs by Rh123 dye-based flow cytometric analysis (reference value: 6%). The format is functional, MIA PaCa-2.
Assay [31] in a line: Cytotoxicity against human MIAPaCa2 cells assessed as growth inhibition at 10 uM after 24 to 48 hrs by MTT assay relative to control. Conditions: MIA PaCa-2, read-out: GI. The assay is classed as functional.
In assay [32] the test system is HL-60. As to the kind of experiment: cells. Conditions: Homo sapiens, HL-60, 48 h.
Description: Cytotoxicity against human HL60 cells assessed as inhibition of cell proliferation after 48 hrs by MTT assay
The nature of assay [33]: Cell cycle arrest in human MIAPaCa2 cells assessed as accumulation at S phase at 20 uM after 24 hrs by propidium iodide staining-based flow cytometric analysis (reference value: […]%). The assay is classed as functional. Conditions: MIA PaCa-2.
Assay [34] deals with HL-60. As to the kind of experiment: Cytotoxicity against human HL60 cells assessed as growth inhibition at 10 uM after 24 to 48 hrs by MTT assay relative to control. The assay is classed as functional. Conditions: read-out: GI.
In assay [35] the test system is PC-3. Nature of the assay: Cytotoxicity against human PC3 cells assessed as growth inhibition at 10 uM after 24 to 48 hrs by MTT assay relative to control. The format is functional. Conditions: read-out: GI.
Assay [36] can be described thus: Cell cycle arrest in human MIAPaCa2 cells assessed as accumulation at G2 phase at 30 uM after 24 hrs by propidium iodide staining-based flow cytometric analysis (reference value: 5%). The format is functional. Conditions: MIA PaCa-2.
Assay [37] in a line: Cell cycle arrest in human MIAPaCa2 cells assessed as apoptotic cells at 20 uM after 24 hrs by propidium iodide staining-based flow cytometric analysis (reference value: 0.1%). The format is functional. Conditions: MIA PaCa-2.
A short description of assay [38]: Cell cycle arrest in human MIAPaCa2 cells assessed as apoptotic cells at 10 uM after 24 hrs by propidium iodide staining-based flow cytometric analysis (reference value: 0.1%). The assay is classed as functional. Conditions: MIA PaCa-2.

The term inhibition denotes the percentage by which the read-out fell short of the control. `COC[C@H]1OC(=O)c2coc3c2[C@@]1(C)C1=C(C3=O)[C@@H]2CCC(=O)[C@@]2(C)C[C@H]1OC(C)=O`: in assay [1], the inhibition is 100%.

As usually defined, the IC50 is the concentration at which inhibition is half-maximal. For the molecule `CC(=O)Nc1ccc(S(=O)(=O)N(c2ccccc2)c2ccnc3ccc(-c4ccc(O)cc4)cc23)cc1`, the Activity in [2] amounted to 42%; in assay [3] it was 19%; in assay [8], 19%; in [9], 23%; in assay [10] it was 67%; in [12], 13%. Also, the Activity in [14] is 59%; in assay [19], 6%; in assay [24], “Dose-dependent effect”; in assay [25], 66%; in [29], 22%; in [30], 13%. Moreover, the Activity in [33] is 21%; in assay [36], 15%; in assay [37], 1%; in assay [38], 1%. Besides, the concentration for half-maximal inhibition (IC50) was 75 µM in the assay with PC-3 [4]; 22 µM with HepG2 [17]; 7 µM in “cells”; under 100 µM with HCT-116 [20]; 16 µM in the assay with HL-60 [32]. In addition, the outcome in the assay with MIA PaCa-2 [5] and with MIA PaCa-2 [18] was inactive. For the same molecule, the inhibition of growth at 100 µM in assay [6] is 89%; in the assay with HL-60 [11] it was 94%; in the assay on HCT-116 [16] it was 29%; in the assay on PC-3 [22] it was 25%; in the assay with HepG2 [26] it was 87%. The inhibition of growth at 30 µM in the assay on HCT-116 [7] amounted to 25%; with HepG2 [13] it was 83%; with PC-3 [15], 14%; in [21], 89%; with HL-60 [27], 93%. The inhibition of growth at 10 µM came to 19% in the assay with HCT-116 [23]; 5% in the assay on HepG2 [28]; 64% in assay [31]; 25% with HL-60 [34]; 12% in the assay with PC-3 [35].

For `O=[N+]([O-])c1cc(S(=O)(=O)N(c2ccccc2)c2ccnc3ccc(-c4ccc(O)cc4)cc23)ccc1C(F)(F)F`, the IC50 was 18 µM in the assay on PC-3 [4]; over 100 µM with HepG2 [17]; 16 µM in “cells”; over 100 µM in the assay on HCT-116 [20]; under 10 µM in the assay with HL-60 [32]. Besides, the inhibition of growth at 100 µM in [6] turned out to be 79%; with HL-60 [11], 93%; in the assay on HCT-116 [16], 29%; in the assay on PC-3 [22], 84%; with HepG2 [26] it was 8%. For the same molecule, the inhibition of growth at 30 µM in the assay on HCT-116 [7] was found to be 23%; in the assay with HepG2 [13], 3%; with PC-3 [15], 68%; in [21], 60%; in the assay on HL-60 [27], 92%. Besides, the inhibition of growth at 10 µM in the assay on HCT-116 [23] was found to be 20%; with HepG2 [28], 3%; in [31] it was 45%; in the assay with HL-60 [34], 90%; with PC-3 [35], 39%.
